As usually defined, the IC50 is the concentration that inhibits the measured activity by half. A higher IC50 goes with weaker potency in that assay.

What all share (assay type): functional, organism-based
Test [1] has as its system Rotavirus. Nature of the test: Inhibitory activity against NCDV(bovine) rotavirus strain.
The test system of test [2] is Rotavirus. The experiment in a line: Inhibitory activity against SA11 (simian) rotavirus strain.
The subject of test [3] is Rotavirus. The experiment in a line: Inhibitory activity against UK(bovine) rotavirus strain.
Test [4] relates to Rotavirus. The experiment in a line: Inhibitory activity against Wa(human) rotavirus strain.

Consider `COC1OC(CSC2(C(=O)O)CC(O)C(NC(C)=O)C([C@H](O)[C@H](O)COC(C)=O)O2)C(O)C(O)C1NC(C)=O` (some centres undefined), for which the IC50 was 0.35 mM in the test with Rotavirus [1] (Rotavirus), > 25 mM in the test with Rotavirus [2] (Rotavirus), 12.5 mM in the test with Rotavirus [3] and > 25 mM in the test with Rotavirus [4].
`COC1OC(CSC2(C(=O)O)CC(O)C(NC(C)=O)C([C@H](O)[C@H](O)CO)O2)C(O)C(O)C1NC(C)=O` (some centres undefined): the concentration for half-maximal inhibition (IC50) in the test on Rotavirus [1] (Rotavirus) is 6.25 mM; in the test on Rotavirus [2] (Rotavirus) it was 25 mM; with Rotavirus [3], > 25 mM; in the test with Rotavirus [4], > 25 mM.
Regarding `COC1OC(CO)C(SC2(C(=O)O)CC(O)C(NC(C)=O)C([C@H](O)[C@H](O)CO)O2)C(O)C1O` (some centres undefined), the IC50 in the test on Rotavirus [1] (Rotavirus) was 6.25 mM; in the test on Rotavirus [2] (Rotavirus) it was 25 mM; with Rotavirus [3] it was > 25 mM; with Rotavirus [4] it was > 25 mM.
Consider `CC(=O)NC1C(O)CC(SC[C@@H](O)C2OC3OC(C)(C)OC3C2O)(C(=O)O)OC1[C@H](O)[C@H](O)CO` (some centres undefined), for which the half-maximal inhibitory concentration (IC50) was 6.25 mM with Rotavirus [1] (Rotavirus), 6.25 mM in the test with Rotavirus [2] (Rotavirus), 25 mM in the test with Rotavirus [3] and > 25 mM in the test with Rotavirus [4].
`COC1OC(CSC2(C(=O)O)CC(O)C(NC(C)=O)C([C@H](O)[C@H](O)COC(C)=O)O2)C(O)C(O)C1O` (some centres undefined): the IC50 is 1.5 mM in the test on Rotavirus [1] (Rotavirus), > 25 mM with Rotavirus [2] (Rotavirus), 25 mM in the test on Rotavirus [3] and > 25 mM in the test on Rotavirus [4].
With `COC1OC(CSC2(C(=O)O)CC(O)C(NC(C)=O)C([C@H](O)[C@H](O)COC(C)=O)O2)C(OC(C)=O)C(O)C1O` (some centres undefined), the IC50 in the test on Rotavirus [1] (Rotavirus) is 1.5 mM; in the test with Rotavirus [2] (Rotavirus), 25 mM; in the test on Rotavirus [3] it was 12.5 mM; in the test with Rotavirus [4], > 25 mM.
Take `CO[C@H]1O[C@H](CSC2(C(=O)O)CC(O)C(NC(C)=O)C(C(O)[C@H](O)CO)O2)[C@@H](O)[C@@H]1O` (single isomer, unassigned): the IC50 in the test with Rotavirus [1] (Rotavirus) is 6.25 mM; in the test with Rotavirus [2] (Rotavirus) it was > 25 mM; in the test on Rotavirus [3], > 25 mM; with Rotavirus [4], > 25 mM.
As for `COC1OC(CSC2(C(=O)O)CC(O)C(NC(C)=O)C([C@H](O)[C@H](O)CO)O2)C(O)C(O)C1O` (stereo in doubt; 14), the IC50 in the test on Rotavirus [1] came out at 6.25 mM; in the test on Rotavirus [2], 25 mM.
With `COC1OC(CSC2(C(=O)O)CC(O)C(NC(C)=O)C([C@H](O)[C@H](O)CO)O2)C(O)C(O)C1O` (stereo in doubt; 16), the IC50 with Rotavirus [1] (Rotavirus) was 6.25 mM; in the test with Rotavirus [2] (Rotavirus), 12.5 mM; with Rotavirus [3] it was > 25 mM; in the test with Rotavirus [4], > 25 mM.

The values are drawn from ChEMBL document CHEMBL1129528, “Synthesis and biological evaluation of N-acetylneuraminic acid-based rotavirus inhibitors” (J Med Chem, 1996).
